Measurements: publication PMC4448982, “LP-925219 maximizes urinary glucose excretion in mice by inhibiting both renal SGLT1 and SGLT2” (Pharmacology Research & Perspectives, 2015)

Molecular target: T1, rat SGLT1 (Rattus norvegicus, UniProt P53790)
T1 construct: expressed in transfected cells; host or cells: HEK293 (per abstract)
T1 sequence (P53790 1-665): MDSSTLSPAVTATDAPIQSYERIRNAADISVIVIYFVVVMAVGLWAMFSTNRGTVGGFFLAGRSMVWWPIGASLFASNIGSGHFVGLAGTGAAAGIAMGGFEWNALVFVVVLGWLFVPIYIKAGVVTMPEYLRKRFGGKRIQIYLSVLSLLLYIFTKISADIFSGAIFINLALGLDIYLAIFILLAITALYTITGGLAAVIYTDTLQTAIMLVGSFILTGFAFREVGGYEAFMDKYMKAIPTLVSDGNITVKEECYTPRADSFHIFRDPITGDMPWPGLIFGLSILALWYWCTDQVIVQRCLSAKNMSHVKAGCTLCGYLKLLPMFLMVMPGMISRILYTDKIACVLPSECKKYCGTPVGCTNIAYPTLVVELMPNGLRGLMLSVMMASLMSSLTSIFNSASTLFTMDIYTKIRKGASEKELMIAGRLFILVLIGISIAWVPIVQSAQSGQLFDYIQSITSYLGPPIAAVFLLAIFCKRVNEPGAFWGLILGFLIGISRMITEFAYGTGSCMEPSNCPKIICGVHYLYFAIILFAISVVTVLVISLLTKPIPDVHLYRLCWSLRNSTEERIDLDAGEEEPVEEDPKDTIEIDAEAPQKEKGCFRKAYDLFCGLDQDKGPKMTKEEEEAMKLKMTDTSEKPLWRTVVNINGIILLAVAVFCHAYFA
Test: 14C-AMG uptake assay, cells expressing rat SGLT1
Type: cell-based
Settings: mean ± SD
Excerpt: Methods for generating cell lines expressing mouse, rat, and dog SGLT1 and SGLT2 are published (Powell et al. [2013b], [2014]). Full-length coding sequence of human SGLT1 (NP_000334) and human SGLT2 (NP_003032.1) with an HA-tag at the N-terminus were cloned into the mammalian expression vector pIRESpuro2 (Clontech, Mountain View, CA). HEK293 cells (ATCC, Manassas, VA) were transfected with the pIRESpuro2 vector containing human SGLT1 or SGLT2 and bulk stable cell lines were selected in the presence of 0.5 μg/mL of puromycin.
Cell lines expressing SGLT1 or SGLT2 were plated into poly-D-lysine-coated 384-well plates, and culture overnight in cell growth medium. Cells were washed, and then incubated in uptake buffer ([…], […] KCl, […] CaCl2, […] MgCl2, […] HEPES/Tris, 1 mg/mL of bovine serum albumin, pH7.4) containing [^14C]α-methylglucopyranoside (^14C-AMG), a nonmetabolizable glucose analog specific for sodium-dependent glucose transporters (Wright and Turk [2004]). The inhibition of SGLT1 or SGLT2 was determined by measuring SGLT1/2-mediated ^14C-AMG uptake in the presence of increasing compound concentrations of LP-925219. […] Standard sigmoidal dose–response model curves were fitted, and the IC50 value was computed as the LP-925219 concentration that inhibited the ^14C-AMG uptake by 50% between baseline and maximum uptake.

**Q.** Which IC50 does the source give for `COc1ccc(Cc2cc([C@@H]3O[C@H](SC)[C@@H](O)[C@H](O)[C@H]3O)ccc2Cl)cc1` [LP-925219] here?
**A.** The IC50 was 36.7 ± 7.2 nM.
